Experimental data as given in PubChem BioAssay (NCI).
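Five concentrations, 48 hours, 96-well plates. TGI: total growth inhibition.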

What follows are compounds tested on OVCAR-5 ovarian (assay: inhibition of tumour cell growth, NCI panel, 48 h).

Structure (SMILES) | TGI
CC(C)(C)c1ccc(C(C)(C)C)c(N2C(=O)[C@@H]3[C@@H]4C=C[C@@H](C4)[C@]3(C)C2=O)c1 | > 100 µM

These compounds were tested on NCI-H460 lung (assay: inhibition of tumour cell growth, NCI panel, 48 h).

Structure (SMILES) | TGI
C1CSC(Sc2nc(SC3=NCCS3)nc(SC3=NCCS3)n2)=N1 | > 100 µM
CC(=O)NCCC1CNc2ccccc21 (stereo unspecified) | > 100 µM
Cn1c(-c2ccccc2)cc(-c2ccsc2)c1-c1ccsc1 | > 100 µM
CN(C)CCCNC(=O)c1cc2/c(=C\c3ccc(N(C)C)cc3)c3ccccc3n2[n+]1C | > 100 µM
CC(C)(C)c1ccc(C(C)(C)C)c(N2C(=O)[C@@H]3[C@@H]4C=C[C@@H](C4)[C@]3(C)C2=O)c1 | > 100 µM

The compounds below were run on IGROV1 ovarian (assay: inhibition of tumour cell growth, NCI panel, 48 h).

Structure (SMILES) | TGI
C1CSC(Sc2nc(SC3=NCCS3)nc(SC3=NCCS3)n2)=N1 | > 100 µM
CC(=O)NCCC1CNc2ccccc21 (stereo unspecified) | > 100 µM
Cn1c(-c2ccccc2)cc(-c2ccsc2)c1-c1ccsc1 | > 100 µM
CN(C)CCCNC(=O)c1cc2/c(=C\c3ccc(N(C)C)cc3)c3ccccc3n2[n+]1C | 37.1 µM
CC(C)(C)c1ccc(C(C)(C)C)c(N2C(=O)[C@@H]3[C@@H]4C=C[C@@H](C4)[C@]3(C)C2=O)c1 | 39.9 µM

Each compound was assayed on NCI/ADR-RES ovarian (assay: inhibition of tumour cell growth, NCI panel, 48 h).

Structure (SMILES) | TGI
C1CSC(Sc2nc(SC3=NCCS3)nc(SC3=NCCS3)n2)=N1 | > 100 µM
CC(=O)NCCC1CNc2ccccc21 (stereo unspecified) | > 100 µM
Cn1c(-c2ccccc2)cc(-c2ccsc2)c1-c1ccsc1 | > 100 µM
CN(C)CCCNC(=O)c1cc2/c(=C\c3ccc(N(C)C)cc3)c3ccccc3n2[n+]1C | > 100 µM
CC(C)(C)c1ccc(C(C)(C)C)c(N2C(=O)[C@@H]3[C@@H]4C=C[C@@H](C4)[C@]3(C)C2=O)c1 | > 100 µM

What follows are compounds tested on HT29 colon (assay: inhibition of tumour cell growth, NCI panel, 48 h).

Structure (SMILES) | TGI
C1CSC(Sc2nc(SC3=NCCS3)nc(SC3=NCCS3)n2)=N1 | > 100 µM
CC(=O)NCCC1CNc2ccccc21 (stereo unspecified) | > 100 µM
Cn1c(-c2ccccc2)cc(-c2ccsc2)c1-c1ccsc1 | > 100 µM
CN(C)CCCNC(=O)c1cc2/c(=C\c3ccc(N(C)C)cc3)c3ccccc3n2[n+]1C | 82.8 µM
CC(C)(C)c1ccc(C(C)(C)C)c(N2C(=O)[C@@H]3[C@@H]4C=C[C@@H](C4)[C@]3(C)C2=O)c1 | > 100 µM

What follows are compounds tested on MOLT-4 leukemia (assay: inhibition of tumour cell growth, NCI panel, 48 h).

Structure (SMILES) | TGI
C1CSC(Sc2nc(SC3=NCCS3)nc(SC3=NCCS3)n2)=N1 | > 100 µM
CC(=O)NCCC1CNc2ccccc21 (stereo unspecified) | > 100 µM
Cn1c(-c2ccccc2)cc(-c2ccsc2)c1-c1ccsc1 | > 100 µM
CN(C)CCCNC(=O)c1cc2/c(=C\c3ccc(N(C)C)cc3)c3ccccc3n2[n+]1C | > 100 µM
CC(C)(C)c1ccc(C(C)(C)C)c(N2C(=O)[C@@H]3[C@@H]4C=C[C@@H](C4)[C@]3(C)C2=O)c1 | 61 µM

The compounds below were run on HS 578T breast (assay: inhibition of tumour cell growth, NCI panel, 48 h).

Structure (SMILES) | TGI
C1CSC(Sc2nc(SC3=NCCS3)nc(SC3=NCCS3)n2)=N1 | > 100 µM
CC(=O)NCCC1CNc2ccccc21 (stereo unspecified) | > 100 µM
Cn1c(-c2ccccc2)cc(-c2ccsc2)c1-c1ccsc1 | > 100 µM
CN(C)CCCNC(=O)c1cc2/c(=C\c3ccc(N(C)C)cc3)c3ccccc3n2[n+]1C | > 100 µM
CC(C)(C)c1ccc(C(C)(C)C)c(N2C(=O)[C@@H]3[C@@H]4C=C[C@@H](C4)[C@]3(C)C2=O)c1 | 59.9 µM

Each compound was assayed on KM12 colon (assay: inhibition of tumour cell growth, NCI panel, 48 h).

Structure (SMILES) | TGI
C1CSC(Sc2nc(SC3=NCCS3)nc(SC3=NCCS3)n2)=N1 | > 100 µM
CC(=O)NCCC1CNc2ccccc21 (stereo unspecified) | > 100 µM
Cn1c(-c2ccccc2)cc(-c2ccsc2)c1-c1ccsc1 | > 100 µM
CN(C)CCCNC(=O)c1cc2/c(=C\c3ccc(N(C)C)cc3)c3ccccc3n2[n+]1C | 61.6 µM
CC(C)(C)c1ccc(C(C)(C)C)c(N2C(=O)[C@@H]3[C@@H]4C=C[C@@H](C4)[C@]3(C)C2=O)c1 | > 100 µM

What follows are compounds tested on MDA-MB-231 breast (assay: inhibition of tumour cell growth, NCI panel, 48 h).

Structure (SMILES) | TGI
C1CSC(Sc2nc(SC3=NCCS3)nc(SC3=NCCS3)n2)=N1 | > 100 µM
CC(=O)NCCC1CNc2ccccc21 (stereo unspecified) | > 100 µM
Cn1c(-c2ccccc2)cc(-c2ccsc2)c1-c1ccsc1 | > 100 µM
CN(C)CCCNC(=O)c1cc2/c(=C\c3ccc(N(C)C)cc3)c3ccccc3n2[n+]1C | 64.4 µM
CC(C)(C)c1ccc(C(C)(C)C)c(N2C(=O)[C@@H]3[C@@H]4C=C[C@@H](C4)[C@]3(C)C2=O)c1 | > 100 µM

The compounds below were run on SN12C renal (assay: inhibition of tumour cell growth, NCI panel, 48 h).

Structure (SMILES) | TGI
C1CSC(Sc2nc(SC3=NCCS3)nc(SC3=NCCS3)n2)=N1 | > 100 µM
CC(=O)NCCC1CNc2ccccc21 (stereo unspecified) | > 100 µM
Cn1c(-c2ccccc2)cc(-c2ccsc2)c1-c1ccsc1 | > 100 µM
CN(C)CCCNC(=O)c1cc2/c(=C\c3ccc(N(C)C)cc3)c3ccccc3n2[n+]1C | 13.5 µM
CC(C)(C)c1ccc(C(C)(C)C)c(N2C(=O)[C@@H]3[C@@H]4C=C[C@@H](C4)[C@]3(C)C2=O)c1 | 52.3 µM

The compounds below were run on TK-10 renal (assay: inhibition of tumour cell growth, NCI panel, 48 h).

Structure (SMILES) | TGI
C1CSC(Sc2nc(SC3=NCCS3)nc(SC3=NCCS3)n2)=N1 | > 100 µM
CC(=O)NCCC1CNc2ccccc21 (stereo unspecified) | > 100 µM
Cn1c(-c2ccccc2)cc(-c2ccsc2)c1-c1ccsc1 | > 100 µM
CN(C)CCCNC(=O)c1cc2/c(=C\c3ccc(N(C)C)cc3)c3ccccc3n2[n+]1C | > 100 µM
CC(C)(C)c1ccc(C(C)(C)C)c(N2C(=O)[C@@H]3[C@@H]4C=C[C@@H](C4)[C@]3(C)C2=O)c1 | > 100 µM

These compounds were tested on OVCAR-8 ovarian (assay: inhibition of tumour cell growth, NCI panel, 48 h).

Structure (SMILES) | TGI
C1CSC(Sc2nc(SC3=NCCS3)nc(SC3=NCCS3)n2)=N1 | > 100 µM
CC(=O)NCCC1CNc2ccccc21 (stereo unspecified) | > 100 µM
Cn1c(-c2ccccc2)cc(-c2ccsc2)c1-c1ccsc1 | > 100 µM
CN(C)CCCNC(=O)c1cc2/c(=C\c3ccc(N(C)C)cc3)c3ccccc3n2[n+]1C | > 100 µM
CC(C)(C)c1ccc(C(C)(C)C)c(N2C(=O)[C@@H]3[C@@H]4C=C[C@@H](C4)[C@]3(C)C2=O)c1 | 33.4 µM

Each compound was assayed on SF-539 CNS (assay: inhibition of tumour cell growth, NCI panel, 48 h).

Structure (SMILES) | TGI
C1CSC(Sc2nc(SC3=NCCS3)nc(SC3=NCCS3)n2)=N1 | > 100 µM
CC(=O)NCCC1CNc2ccccc21 (stereo unspecified) | > 100 µM
Cn1c(-c2ccccc2)cc(-c2ccsc2)c1-c1ccsc1 | > 100 µM
CN(C)CCCNC(=O)c1cc2/c(=C\c3ccc(N(C)C)cc3)c3ccccc3n2[n+]1C | 39.4 µM
CC(C)(C)c1ccc(C(C)(C)C)c(N2C(=O)[C@@H]3[C@@H]4C=C[C@@H](C4)[C@]3(C)C2=O)c1 | > 100 µM

The compounds below were run on MDA-MB-435 (assay: inhibition of tumour cell growth, NCI panel, 48 h).

Structure (SMILES) | TGI
C1CSC(Sc2nc(SC3=NCCS3)nc(SC3=NCCS3)n2)=N1 | > 100 µM
CC(=O)NCCC1CNc2ccccc21 (stereo unspecified) | > 100 µM
Cn1c(-c2ccccc2)cc(-c2ccsc2)c1-c1ccsc1 | > 100 µM
CN(C)CCCNC(=O)c1cc2/c(=C\c3ccc(N(C)C)cc3)c3ccccc3n2[n+]1C | 58.7 µM
CC(C)(C)c1ccc(C(C)(C)C)c(N2C(=O)[C@@H]3[C@@H]4C=C[C@@H](C4)[C@]3(C)C2=O)c1 | 32.4 µM

The compounds below were run on DU-145 prostate (assay: inhibition of tumour cell growth, NCI panel, 48 h).

Structure (SMILES) | TGI
C1CSC(Sc2nc(SC3=NCCS3)nc(SC3=NCCS3)n2)=N1 | > 100 µM
CC(=O)NCCC1CNc2ccccc21 (stereo unspecified) | > 100 µM
Cn1c(-c2ccccc2)cc(-c2ccsc2)c1-c1ccsc1 | > 100 µM
CN(C)CCCNC(=O)c1cc2/c(=C\c3ccc(N(C)C)cc3)c3ccccc3n2[n+]1C | > 100 µM
CC(C)(C)c1ccc(C(C)(C)C)c(N2C(=O)[C@@H]3[C@@H]4C=C[C@@H](C4)[C@]3(C)C2=O)c1 | 53.5 µM
